Results as given in patent US20250129135A1, “Multi-Agonist and Use Thereof” (priority 2021, published 2025).
One block for each compound: values may come before it. Starred links: 1 amine or outer side, 2 acyl side, 3 side chain; linkers in the order of their positions; H or OH if unused. Non-standard residues stand in square brackets, D forms with d. Residues, ends and D or L forms follow the SMILES beside them. Groups on a side chain read outwards from the residue. *: point of attachment. C20 diacid = O=C(O)CCCCCCCCCCCCCCCCCCC(=O)*; αMePhe(2-F) = C[C@](N)(Cc1ccccc1F)C(=O)O; γGlu = O=C(O)[C@H](CCC(=O)[*:2])N[*:1]; αMeL = CC(C)C[C@](C)(N)C(=O)O; AEEA = NCCOCCOCC(=O)O; Aib = CC(C)(N)C(=O)O

Columns and labels:
[1] = test system: human primary liver cells; assay type: cell-based; settings: for Rel. A (Relative Activity) on human primary liver cells: relative to GCG
How it was run: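 Human primary hepatocytes, thawed at 37° C and resuspended in HBSS, exposed to compound for 60 min at room temperature. Detection reagent then added for 60 min before cAMP readout.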

C57 BL/6J DIO mice = experiment: In vivo pharmacodynamics in high-fat diet induced obesity (DIO) mice; parameters: species or system mouse; settings: Mean±SEM; for LDL-C / TC (total cholesterol) / TG (plasma triglycerides) / Blood sugar (fasting blood glucose) / Insulin (blood): Day 15
How it was run: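 DIO mice (60 kcal% fat diet) dosed subcutaneously in 1×PBS, 5 ml/kg, every three days for 15 days. Daily body weight and food intake as % change from baseline; day 15 fasting glucose, plasma TC, LDL-C, TG, insulin and liver TG. Mean±SEM, one-way ANOVA with Dunnett's versus vehicle.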

Human GIP R = target: T1, Human GIP R (Homo sapiens, UniProt P48546); experiment: cAMP (HTRF) activity in CHO cells stably overexpressing GIP receptor; assay type: cell-based; settings: for Human GIP R Rel. A (Relative Activity): EC50 of human GIP / EC50 of compound; for EC50: stable transfected cell cAMP activity, at least 3 independent tests
T1 construct: expressed in transfected cells; host or cells: CHO
T1 sequence (P48546 22-466): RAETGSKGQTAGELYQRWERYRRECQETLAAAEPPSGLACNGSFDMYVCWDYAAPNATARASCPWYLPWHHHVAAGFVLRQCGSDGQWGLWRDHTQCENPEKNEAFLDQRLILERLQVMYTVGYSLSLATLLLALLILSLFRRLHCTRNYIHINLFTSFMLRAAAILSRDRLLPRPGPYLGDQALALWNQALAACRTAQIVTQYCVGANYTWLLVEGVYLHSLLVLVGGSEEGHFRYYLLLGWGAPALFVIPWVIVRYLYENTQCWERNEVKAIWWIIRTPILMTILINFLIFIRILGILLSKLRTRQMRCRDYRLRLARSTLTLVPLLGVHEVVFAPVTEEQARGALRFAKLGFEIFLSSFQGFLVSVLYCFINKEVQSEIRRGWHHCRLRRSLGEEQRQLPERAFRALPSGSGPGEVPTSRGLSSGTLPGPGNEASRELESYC
How it was run: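 Cells in HBSS are exposed to compound for 60 min at room temperature, followed by 60 min with detection reagent. EC50 (nM) is taken from concentration-response curves.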

RIN-m5F cells = assay type: cell-based, rat; settings: for Rel. A (Relative Activity) on RIN-m5F: relative to GLP-1(7-37)
How it was run: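 cAMP production measured in RIN-m5F cells resuspended in HBSS; compounds incubated 60 min at room temperature, then detection reagent added for a further 60 min before read-out.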

SMILES: CC[C@H](C)[C@H](NC(=O)[C@H](Cc1ccccc1)NC(=O)[C@H](C)NC(=O)C(C)(C)NC(=O)[C@H](CCC(N)=O)NC(=O)[C@H](C)NC(=O)[C@H](CCCCNC(=O)COCCOCCNC(=O)COCCOCCNC(=O)CC[C@H](NC(=O)CCCCCCCCCCCCCCCCCCC(=O)O)C(=O)O)NC(=O)[C@H](CCCCN)NC(=O)[C@H](CC(=O)O)NC(=O)[C@H](CC(C)C)NC(=O)[C@H](Cc1ccccc1)NC(=O)[C@@H](NC(=O)[C@H](CO)NC(=O)[C@H](Cc1ccc(O)cc1)NC(=O)[C@H](CC(=O)O)NC(=O)[C@H](CO)NC(=O)[C@@H](NC(=O)[C@](C)(Cc1ccccc1F)NC(=O)[C@@H](NC(=O)CNC(=O)[C@H](CCC(N)=O)NC(=O)C(C)(C)NC(=O)[C@@H](N)Cc1ccc(O)cc1)[C@@H](C)O)[C@@H](C)O)[C@@H](C)CC)C(=O)N[C@@H](CCC(=O)O)C(=O)N[C@@H](Cc1ccc(O)cc1)C(=O)N[C@@H](CC(C)C)C(=O)N[C@@H](CC(C)C)C(=O)N[C@@H](CCC(=O)O)C(=O)NC(C)(C)C(=O)N[C@@H](Cc1c[nH]cn1)C(=O)N1CCC[C@H]1C(=O)N[C@@H](CO)C(=O)N[C@@H](CO)C(=O)NCC(=O)N[C@@H](C)C(=O)N1CCC[C@H]1C(=O)N1CCC[C@H]1C(=O)N1CCC[C@H]1C(=O)N[C@@H](CO)C(N)=O [Compound 18]
EC50 [1]: 0.622 nM | Rel. A (Relative Activity) on human primary liver cells [1]: 625.56% | Weight change (C57 BL/6J DIO mice; Table 6-1, 3 nmol/kg s.c. Q3D for 15 days): −22.2 ± 0.89% | Weight change (C57 BL/6J DIO mice; Table 6-1, 10 nmol/kg s.c. Q3D for 15 days): −30.6 ± 1.26% | Weight change (C57 BL/6J DIO mice; Table 6-1, 30 nmol/kg s.c. Q3D for 15 days): −45.0 ± 1.52% | LDL-C (C57 BL/6J DIO mice; Table 7-1, 3 nmol/kg): 0.60 ± 0.043 mM | TC (total cholesterol) (C57 BL/6J DIO mice; Table 7-1, 3 nmol/kg): 3.77 ± 0.234 mM | TG (plasma triglycerides) (C57 BL/6J DIO mice; Table 7-1, 3 nmol/kg): 0.90 ± 0.027 mM | LDL-C (C57 BL/6J DIO mice; Table 7-1, 30 nmol/kg): 0.35 ± 0.036 mM | TC (total cholesterol) (C57 BL/6J DIO mice; Table 7-1, 30 nmol/kg): 2.32 ± 0.161 mM | TG (plasma triglycerides) (C57 BL/6J DIO mice; Table 7-1, 30 nmol/kg): 0.61 ± 0.041 mM | Blood sugar (fasting blood glucose) (C57 BL/6J DIO mice; Table 8-1, 3 nmol/kg): 98.5 ± 9.17 mg/dL | Insulin (blood) (C57 BL/6J DIO mice; Table 8-1, 3 nmol/kg): 21.2 ± 3.73 mIU/L | Human GIP R Rel. A (Relative Activity) (Human GIP R): 861.90% | EC50 (Human GIP R): 0.021 nM | EC50 (RIN-m5F cells): 0.214 nM | Rel. A (Relative Activity) on RIN-m5F (RIN-m5F cells): 482.24%

EC50 [1]: 0.899 nM | Human GIP R Rel. A (Relative Activity) (Human GIP R): 1392.31% | EC50 (Human GIP R): 0.013 nM | EC50 (RIN-m5F cells): 0.173 nM
SMILES: CC[C@H](C)[C@H](NC(=O)[C@H](Cc1ccccc1)NC(=O)[C@H](C)NC(=O)C(C)(C)NC(=O)[C@H](CCC(N)=O)NC(=O)[C@H](C)NC(=O)[C@H](CCCCNC(=O)COCCOCCNC(=O)COCCOCCNC(=O)CC[C@H](NC(=O)CCCCCCCCCCCCCCCCCCC(=O)O)C(=O)O)NC(=O)[C@H](CCCCN)NC(=O)[C@H](CC(=O)O)NC(=O)[C@H](CC(C)C)NC(=O)[C@](C)(CC(C)C)NC(=O)[C@@H](NC(=O)[C@H](CO)NC(=O)[C@H](Cc1ccc(O)cc1)NC(=O)[C@H](CC(=O)O)NC(=O)[C@H](CO)NC(=O)[C@@H](NC(=O)[C@](C)(Cc1ccccc1F)NC(=O)[C@@H](NC(=O)CNC(=O)[C@H](CCC(N)=O)NC(=O)C(C)(C)NC(=O)[C@@H](N)Cc1ccc(O)cc1)[C@@H](C)O)[C@@H](C)O)[C@@H](C)CC)C(=O)N[C@@H](CCC(=O)O)C(=O)N[C@@H](Cc1ccccc1)C(=O)N[C@@H](CC(C)C)C(=O)N[C@@H](CC(C)C)C(=O)N[C@@H](CCC(=O)O)C(=O)N[C@H](C(=O)NCC(=O)N1CCC[C@H]1C(=O)N[C@@H](CO)C(=O)N[C@@H](CO)C(=O)NC(C)(C)C(=O)N[C@@H](Cc1c[nH]cn1)C(=O)N1CCC[C@H]1C(=O)N1CCC[C@H]1C(=O)N1CCC[C@H]1C(=O)N[C@@H](CO)C(N)=O)[C@@H](C)O [Compound 38] (H-Y[Aib]QGT[αMePhe(2-F)]TSDYSI[αMeL]LDKK([AEEA-AEEA-γGlu-C20 diacid])AQ[Aib]AFIEFLLETGPSS[Aib]HPPPS-NH2; N-terminus assumed)
Rel. A (Relative Activity) on human primary liver cells [1]: 432.81% | Weight change (C57 BL/6J DIO mice; Table 6-2, 3 nmol/kg s.c. Q3D for 15 days): −19.0 ± 1.30% | Weight change (C57 BL/6J DIO mice; Table 6-2, 10 nmol/kg s.c. Q3D for 15 days): −25.7 ± 2.26% | LDL-C (C57 BL/6J DIO mice; Table 7-2, 3 nmol/kg): 0.39 ± 0.025 mM | TC (total cholesterol) (C57 BL/6J DIO mice; Table 7-2, 3 nmol/kg): 3.49 ± 0.151 mM | TG (plasma triglycerides) (C57 BL/6J DIO mice; Table 7-2, 3 nmol/kg): 0.74 ± 0.019 mM | LDL-C (C57 BL/6J DIO mice; Table 7-2, 10 nmol/kg): 0.35 ± 0.053 mM | TC (total cholesterol) (C57 BL/6J DIO mice; Table 7-2, 10 nmol/kg): 3.12 ± 0.186 mM | TG (plasma triglycerides) (C57 BL/6J DIO mice; Table 7-2, 10 nmol/kg): 0.63 ± 0.051 mM | Blood sugar (fasting blood glucose) (C57 BL/6J DIO mice; Table 8-2, 3 nmol/kg): 151.7 ± 8.46 mg/dL | Insulin (blood) (C57 BL/6J DIO mice; Table 8-2, 3 nmol/kg): 24.9 ± 5.43 mIU/L | Rel. A (Relative Activity) on RIN-m5F (RIN-m5F cells): 596.53%
